# Target: cGMP-specific PDE (PDE5) (UniProt O76074)
# Assay: In vitro PDE inhibitory activity (IC50) against cGMP PDE5
# Type: biochemical, human or rabbit
# Details: in vitro activities as inhibitors of cGMP PDE5
# Procedure: In vitro PDE inhibitory activities against cyclic guanosine 3′,5′-monophosphate (cGMP) and cyclic adenosine 3′,5′-monophosphate (cAMP) phosphodiesterases were determined by measurement of their IC50 values (the concentration of compound required for 50% inhibition of enzyme activity).
# The required PDE enzymes were isolated from a variety of sources, including human corpus cavernosum, human and rabbit platelets, human cardiac ventricle, human skeletal muscle and bovine retina, essentially by the method of W. J. Thompson and M. M. Appleman (Biochem., 1971, 10, 311). In particular, the cGMP-specific PDE (PDE5) and the cGMP-inhibited cAMP PDE (PDE3) were obtained from human corpus cavernosum tissue, human platelets or rabbit platelets; the cGMP-stimulated PDE (PDE2) was obtained from human corpus cavernosum; the calcium/calmodulin (Ca/CAM)-dependent PDE (PDE1) from human cardiac ventricle; the cAMP-specific PDE (PDE^4) from human skeletal muscle; and the photoreceptor PDE (PDE6) from bovine retina.
# Assays were performed using a modification of the “batch” method of W. J. Thompson et al. (Biochem., 1979, 18, 5228).
row,SMILES,IC50 [nM]
1,"CCCc1nn(Cc2ccccc2)c2c(=O)[nH]c(-c3cc(S(=O)(=O)N4CCN(C)CC4)ccc3OCC)nc12 [Example 41, 1-Benzyl-5-[2-ethoxy-5-(4-methylpiperazin-1-ylsulphonyl)phenyl]-3-n-propyl-1,6-dihydro-7H-pyrazolo[4,3-d]pyrimidin-7-one]",3.9
2,"CCCOc1ccc(S(=O)(=O)N2CCN(C)CC2)cc1-c1nc2c(CCC)n(Cc3ncnn3C)nc2c(=O)[nH]1 [Example 77, 5-[5-(4-Methylpiperazin-1-ylsulphonyl)-2-n-propoxyphenyl]-2-(1-methyl-1,2,4-triazol-5-yl)methyl-3-n-propyl-2,6-dihydro-7H-pyrazolo[4,3-d]pyrimidin-7-one]",7.1
3,"CCCc1c2nc(-c3cc(S(=O)(=O)N4CCN(C)CC4)ccc3OCC)[nH]c(=O)c2nn1Cc1ccccc1 [Example 87, 2-Benzyl-5-[2-ethoxy-5-(4-methylpiperazin-1-ylsulphonyl)phenyl]-3-n-propyl-2,6-dihydro-7H-pyrazolo[4,3-d]pyrimidin-7-one]",12
4,"CCCOc1ccc(S(=O)(=O)N2CCN(C)CC2)cc1-c1nc2c(CCC)nn(Cc3ncnn3C)c2c(=O)[nH]1 [Example 31, 5-[5-(4-Methylpiperazin-1-ylsulphonyl)-2-n-propoxyphenyl]-1(1-methyl-1,2,4-triazol-5-yl)methyl-3-n-propyl-1,6-dihydro-7H-pyrazolo-[4,3-d]pyrimidin-7-one]",4
5,"CCCc1c2nc(-c3cc(S(=O)(=O)N4CCN(C)CC4)ccc3OCC)[nH]c(=O)c2nn1CC1CCC1 [Example 126, 2-Cyclobutylmethyl-5-[2-ethoxy-5-(4-methylpiperazin-1-ylsulphonyl)phenyl]-3-n-propyl-2,6-dihydro-7H-pyrazolo[4,3-d]pyrimidin-7-one]",9.2
6,"CCCOc1ccc(S(=O)(=O)N2CCN(CC)CC2)cc1-c1nc2c(CCC)n(Cc3cccc[n+]3[O-])nc2c(=O)[nH]1 [Example 129, 5-[5-(4-Ethylpiperazin-1-ylsulphonyl)-2-n-propoxyphenyl]-2-(1-oxidopyridin-2-yl)methyl-3-n-propyl-2,6-dihydyro-7H-pyrazolo[4,3-d]pyrimidin-7-one]",6.5

# These reach a lower IC50. Values come first.
row,IC50 [nM],SMILES
1,2.6,"CCCOc1ccc(S(=O)(=O)N2CCN(CCO)CC2)cc1-c1nc2c(CCC)n(Cc3ccccn3)nc2c(=O)[nH]1 [Example 7, 5-{5-[4-(2-Hydroxyethyl)piperazin-1-ylsulphonyl]-2-n-propoxyphenyl}-3-n-propyl-2-(pyridin-2-yl)methyl-2,6-dihydro-7H-pyrazolo[4,3-d]pyrimidin-7-one]"
2,2.2,"CCCOc1ccc(S(=O)(=O)N2CCN(CCO)CC2)cc1-c1nc2c(CCC)nn(Cc3ccccn3)c2c(=O)[nH]1 [Example 4, 5-{5-[4-(2-Hydroxyethyl)piperazin-1-ylsulphonyl]-2-n-propoxyphenyl}-3-n-propyl-1-(pyridin-2-yl)methyl-1,6-dihydro-7H-pyrazolo[4,3-d]pyrimidin-7-one]"
3,3.2,"CCCOc1ccc(S(=O)(=O)N2CCN(CC)CC2)cc1-c1nc2c(CCC)n(-c3ccccc3NS(C)(=O)=O)nc2c(=O)[nH]1 [Example 117, 5-[5-(4-Ethylpiperazin-1-ylsulphonyl)-2-n-propoxyphenyl]-2-(2-methanesulphonamidophenyl)-3-n-propyl-2,6-dihydro-7H-pyrazolo[4,3-d]-pyrimidin-7-one]"
4,1.9,"CCCOc1ccc(S(=O)(=O)N2CCN(CC)CC2)cc1-c1nc2c(CCC)nn(CCN3CCOCC3)c2c(=O)[nH]1 [Example 100, 5-[5-(4-Ethylpiperazin-1-ylsulphonyl)-2-n-propoxyphenyl]-1-(2-morpholin-4-ylethyl)-3-n-propyl-1,6-dihydro-7H-pyrazolo[4,3-d]pyrimidin-7-one]"
5,2.8,"CCCOc1ccc(S(=O)(=O)N2CCN(C)CC2)cc1-c1nc2c(CCC)n(-c3ncccn3)nc2c(=O)[nH]1 [Example 125, 5-[5-(4-Methylpipierazin-1-ylsulphonyl)-2-n-propoxyphenyl]-3-n-propyl-2-pyrimidin-2-yl-2,6-dihydro-7H-pyrazolo[4,3-d]pyrimidin-7-one]"
6,2.1,"CCCOc1ccc(S(=O)(=O)N2CCN(CC)CC2)cc1-c1nc2c(CCC)n(CCN3CCOCC3)nc2c(=O)[nH]1 [Example 108, 5-[5-(4-Ethylpiperazin-1-ylsulphonyl)-2-n-propoxyphenyl]-2-(2-morphin-4-ylethyl)-3-n-propyl-2,6-dihydro-7H-pyrazolo[4,3-d]pyrimidin-7-one]"

# Source: US6916927B2, “Pyrazolopyrimidinones which inhibit type 5 cyclic guanosine 3′,5′-monophosphate phosphodiesterase (cGMP-PDE5) for the treatment of sexual dysfunction” (Pfizer Inc., priority 1997, dated 2005)
